Laboratory results: patent US4777172A, “Pyrimidylalkylthio benzimidale compounds, pharmaceutical compositions and use” (Smith Kline & French Laboratories Limited, priority 1986, dated 1988)
Structures can show the parent of a compound that is named as a salt.

Legend:
H^+ -K^+ -ATPase = assay: K^+ Stimulated ATPase Activity; type: biochemical, pig
Experimental: A. K^+ Stimulated ATPase Activity
The effects of a single high concentration (1 mM) of a compound of structure (I) on H^+ -K^+ -ATPase were determined at pH 6.1 and pH 7.4. Preferred compounds of structure (I) were also tested over a range of concentrations to determine IC50 values at pH 6.1 and 7.4.
(i) Preparation of Lyophilised Gastric Vesicles (H^+ -K^+ -ATPase)
H^+ -K^+ -ATPase was prepared from the lyophilised gastric vesicles of pig fundic mucosa after the method of Saccomani et. al. (Biochem and Biophys. Acta., 465, 311, 1977).
(ii) K^+ Stimulated ATPase Activity
Compounds of structure (I) were pre-incubated with H^+ -K^+ -ATPase preparation 30 μg protein/ml from (i) in 10 mM Pipes/Tris buffer pH 6.1 and pH 7.4.
After 30 minutes at 37° the pre-incubation was diluted 5-fold with assay buffer to start the ATPase reaction. The conditions in the assay are 100 mM Pipes/Tris, 2 mM MgCl2, 10 mM KCl, 5 μg/ml nigericin, 2 mM Na2 ATP, pH 7.0. After an incubation at 37° for 15 minutes the inorganic phosphate released was determined by the method of Yoda & Hokin (Biochem. Biophys. Res. Com. 40, 880, 1970).
The effect of the same concentration of compound of structure (I) (pre-incubated with H^+ -K^+ -ATPase preparation at pH 7.4 as described above) on the recovery of 100 nmole of inorganic phosphate was also determined. […]

[1] = test system: rabbit intact gastric glands (dibutyryl cAMP stimulated); assay: Aminopyrine (AP) accumulation in intact gastric glands; type: cell-based, New Zealand white rabbits; conditions: Oryctolagus cuniculus, 0.5 h; 300 μM dibutyryl cAMP, 30 minutes at 37° C, pH 7.4; amount required to inhibit stimulated aminopyrine accumulation by 50%
Experimental: B. Aminopyrine (AP) accumulation in intact gastric glands
The effect of a single concentration (100 μm) of a compound of structure (I) on dibutyryl cAMP stimulated AP […] in rabbit intact gastric glands was determined. Preferred compounds of structure (I) were tested over a range of concentrations to determine the IC50 value.
(i) Preparation of intact gastric glands.
Intact gastric glands were prepared from New Zealand white rabbits by the method of Berghindh et al. (Acta. Physio. Scand. 96, 150, 1976). Gastric mucosal scrapings were digested at 37° C. for 45-60 min. with Collagenase (100 U, Type 1, Sigma), and glands harvested by coarse filtration and sedimentation.
Test compound was incubated with glands and 300 μM dibutyryl cAMP for 30 minutes at 37° C. Incubating medium contained 132.5 mM NaCl, 5.4 mM KCl, 1.0 mM NaH2 PO4, 5.0 mM Na2 HPO4, 1.2 mM MgSO4, 1.0 mM CaCl2, 11.1 mM glucose, 2.0 mg/ml rabbit albumin, 10 μg/ml phenol red, approximately 0.3 uM[^14 C] […] (110 mCi/mmole), pH 7.4.
After incubation, glands were centrifuged and the supernatant removed. The glands were dried, weighed and dissolved in NaOH. The distribution of radioactivity between the supernatant and glands is then used to calculate the AP ratio after the method of Berglindh et al. (Acta. Physiol. Scand. 97, 401, 1976).
The IC50 value is the amount of compound required to inhibit the stimulated accumulation of aminopyrine by 50%.

[2] = test system: histamine stimulated gastric acid secretion; assay: Rat: Lumen perfused stomach (histamine stimulated gastric acid secretion); type: in vivo
From the text: C. Rat: Lumen perfused stomach (histamine stimulated gastric acid secretion).
Using a modification of the procedure described by Ghosh and Schild (Br. J. Pharmacology, 13, 54, 1958), ED50 values after either intraduodenal (i.d) or intravenous (i.v) administration were obtained as follows: […]

[3] = i.d. (intraduodenal) administration

SMILES: COc1ccc2[nH]c([S+]([O-])Cc3nccc(N4CCCCC4)n3)nc2c1 (stereo not shown) [Example 3, 5-methoxy-2-(4-piperidino-2-pyrimidinylmethylsulphinyl)-(1H)-benzimidazoleCalcium Salt 2.5H2 O]
- inhibition of potassium stimulated H^+ -K^+ ATPase (H^+ -K^+ -ATPase; pre-incubation pH 6.1, 30 minutes at 37°): found to inhibit
- inhibition of potassium stimulated H^+ -K^+ ATPase (H^+ -K^+ -ATPase; pre-incubation pH 7.4, 30 minutes at 37°): found to inhibit
- IC50 [1]: 16 µM
- ED50 ([2]; iv, i.v. administration): 1.4 µmol/kg

SMILES: COc1ccc2[nH]c([S+]([O-])Cc3ncnc(N4CCCCC4)c3C)nc2c1 (stereo not shown) [Example 11, 5-methoxy-2-(5-methyl-6-piperidino-4-pyrimidinylmethylsulphinyl)-(1H)-benzimidazole]
- IC50 [1]: 6.15 µM

SMILES: COc1ccc2[nH]c([S+]([O-])Cc3ncnc(N(C)C)c3C)nc2c1 (stereo not shown) [Example 17, 5-methoxy-2-(5-methyl-6-dimethylamino-4-pyrimidinylmethylsulphinyl)-(1H)-benzimidazole]
- IC50 [1]: 3.33 µM

SMILES: COc1ccc2[nH]c([S+]([O-])Cc3nccc(N4CCCC4)n3)nc2c1 (stereo not shown) [Example 7, 5-methoxy-2-(4-pyrrolidino-2-pyrimidinylmethylsulphinyl)-(1H)-benzimidazole]
- IC50 [1]: 2.44 µM

SMILES: COc1ccc2[nH]c([S+]([O-])Cc3cc(N4CCCCC4)ncn3)nc2c1 (stereo not shown) [Example 19, 5-methoxy-2-(6-piperidino-4-pyrimidinylmethylsulphinyl)-(1H)-benzimidazole]
- IC50 [1]: 2.64 µM

SMILES: COc1ccc2[nH]c([S+]([O-])Cc3nccc(N(C)C)n3)nc2c1 (stereo not shown) [Example 9, 5-methoxy-2-(4-dimethylamino-2-pyrimidinylmethylsulphinyl)-(1H)-benzimidazole]
- IC50 [1]: 1.2 µM
- ED50 [2, 3]: 2.4 µmol/kg

SMILES: COc1ccc2[nH]c([S+]([O-])Cc3ncnc(N4CCCC4)c3C)nc2c1 (stereo not shown) [Example 13, 5-methoxy-2-(5-methyl-6-pyrrolidino-4-pyrimidinylmethylsulphinyl)-(1H)-benzimidazole]
- IC50 [1]: 0.32 µM
- ED50 [2, 3]: 2.8 µmol/kg

SMILES: COc1ccc2[nH]c([S+]([O-])Cc3ncnc(N4CCOCC4)c3C)nc2c1 (stereo not shown) [Example 15, 5-methoxy-2-(5-methyl-6-morpholino-4-pyrimidinylmethylsulphinyl)-(1H)-benzimidazole]
- IC50 [1]: 5 µM
